The conditions of data set [1]: plasma. The method, then: The plasma samples were incubated at 37° C. in duplicate (anticoagulant: K3EDTA). […] Samples were placed at −80° C. until the study was complete. […] The vortexed samples were centrifuged and 50 μL of supernatant was dispensed in a 96-well plate.
The deuterium in both enantiomers, d-S and d-R, can be lost by D/H exchange to give both protonated enantiomers, h-S and h-R with rate constants kDRR, kDRS, kDSR, and kDSS. At the same time, the protonated enantiomers h-S and h-R can exchange with enantiomerization rate constants kRS and kSR. All four compounds can also degrade with potentially different degradation rate constants kdSd, kdRd, khSd, and khRd.
Human and mouse plasma data were analyzed independently. […] Data in each species was analyzed using a stepwise approach.
The step between calculated time points was minimized in order to minimize the local error (proportional to the square of the step size) and the global error (proportional to the step size).

The nature of data set [2]: Body weight gain in male C57BL/6J mice on a standard diet. It counts as in vivo, mouse. Conditions: twice daily oral gavage for 11 days; overall daily dose h-rac-pio 30 mg/kg, d-S-pio 15 mg/kg, d-R-pio 15 mg/kg; vs. vehicle. Here is the method:
Male C57BL/6J mice (about 28 g body weight) were acclimated singly-housed for one week to a reverse light/dark cycle with free access to water and standard maintenance diet. Animals were then handled daily for one week followed by another 7 days of twice daily dosing with vehicle (0.5% methylcellulose in water) by oral gavage. […] Body weights were measured twice daily, prior to each dosing, to adjust individual dosing volumes to actual body weights.

Another data set has as its system db/db mice. The data set can be described thus: db/db mouse model of type II diabetes, 10-day daily oral dosing. It counts as in vivo. The following applies: for decrease of IL-1β / decrease of IL-6 / decrease of TNF-α: d-R-pio 20 mg/kg; for adiponectin: d-S-pio 20 mg/kg; for non-essential fatty acids: 20 mg/kg daily oral gavage, 10 days, compared with h-rac-pio 30 mg/kg. The method, then:
Body weights were measured throughout the study. Non-fasting blood glucose (10 μL by tail snip) was measured 4 hours prior to first dose, and animals were sorted and assigned to groups based on this measure. […] A terminal blood sample was collected for determination of serum levels of cholesterol, triglycerides, free fatty acids, adiponectin, serum amyloid A, and cytokines IL-1β, IL-6, TNF-α, and MCP-1, using standard analytical methods. Quantitative results were analyzed by statistical methods using, as appropriate, one- or two-way ANOVA or Kruskal-Wallis tests for differences followed by Sidak's, Dunnett's, or Dunn's post-test to determine differences vs. vehicle-treated control animals. All graphs were generated with GraphPad Prism version 6.0.2 (GraphPad Software, Inc., La Jolla, Calif.).

Data set [3] has as its target human recombinant monoamine oxidase B (Homo sapiens (Human), UniProt P27338). The data set can be described thus: Monoamine oxidase B (MAO-B) inhibition, luminescence assay. It counts as biochemical. The method, then: The mixtures were incubated at 22° C. for 5 min. Substrate (D-luciferin derivative) was added, and then the mixture was incubated at 37° C. for 60 min. The reaction was stopped by addition of the detection reagent containing luciferase. Luminescence was read after standing for 60 min at room temperature.
Results were expressed as a percentage of the luminescence of the control (enzyme+substrate). IC50 values were obtained by fitting experimental data (mean % luminescence as function of concentration) to the Hill equation with variable slope using non-linear regression analysis.

For data set [4] the following is noted: mouse, in vivo, po, 15 mg/kg.
Procedure: (§1) Animals were then euthanized. Plasma was separated by centrifugation and stored at −80° C. until analyzed.
(§2) Concentrations were calculated by interpolation on standard curves generated from mouse plasma samples spiked with known concentrations of the pure analytes.
Data set [5] is described as follows: Pharmacokinetics in male C57BL/6 mice after oral gavage for 5 days. The following applies: day 5, oral gavage daily; for t1/2 (h) d-S: elimination half-life of d-S-pio; for t1/2 (h) h-R: elimination half-life of h-R-pio; for t1/2 (h) h-R / t1/2 (h) h-S: h-rac-pio 30 mg/kg, d-S-pio and d-R-pio 15 mg/kg; for t1/2 (h) h-S: elimination half-life of h-S-pio.
Procedure: as §1, §2
[6] abbreviates: 10 days daily oral, h-rac-pio 30 mg/kg, vs. vehicle.

Read-outs that look alike come from different tables or passages of the source.

Chain of human recombinant monoamine oxidase B (P27338 whole entry): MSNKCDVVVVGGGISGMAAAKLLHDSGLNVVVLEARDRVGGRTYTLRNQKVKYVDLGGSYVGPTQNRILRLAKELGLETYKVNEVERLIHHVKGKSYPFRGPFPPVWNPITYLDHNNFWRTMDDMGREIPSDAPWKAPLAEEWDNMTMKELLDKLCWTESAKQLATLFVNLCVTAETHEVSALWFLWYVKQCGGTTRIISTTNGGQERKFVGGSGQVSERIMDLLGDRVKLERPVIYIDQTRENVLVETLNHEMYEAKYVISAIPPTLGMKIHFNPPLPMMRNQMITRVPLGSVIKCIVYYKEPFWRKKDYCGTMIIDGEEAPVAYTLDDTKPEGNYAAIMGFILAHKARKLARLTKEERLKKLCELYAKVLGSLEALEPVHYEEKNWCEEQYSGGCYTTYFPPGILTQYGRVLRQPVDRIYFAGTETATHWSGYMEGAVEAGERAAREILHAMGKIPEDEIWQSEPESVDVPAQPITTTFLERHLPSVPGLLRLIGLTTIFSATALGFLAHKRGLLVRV

For the compound `[2H]C1(Cc2ccc(OCCc3ccc(CC)cn3)cc2)SC(=O)NC1=O` (racemic) [d-rac-pio, rac-5-({p-[2-(5-Ethyl-2-pyridyl)ethoxy]phenyl}methyl)-(5-^2H)-1,3-thiazolidine-2,4-dione], in data set [1] (human), the “t1/2 of h-R-pio, ln(2)/kRS” value is reported as 1.6 h and the “t1/2 of h-S-pio, ln(2)/kSR” value was 1.6 h. In data set [1] (mouse), the “t1/2 of h-R-pio, ln(2)/kRS” value amounted to 0.9 h and the “t1/2 of h-S-pio, ln(2)/kSR” value came to 0.75 h.

On to `CCc1ccc(CCOc2ccc(CC3SC(=O)NC3=O)cc2)nc1` (racemic) [h-rac-pio, rac-5-({p-[2-(5-Ethyl-2-pyridyl)ethoxy]phenyl}methyl)-1,3-thiazolidine-2,4-dione, reference compound], for which the “percent body weight difference versus day 1 body weight” value in data set [2] is “statistically significant increase”. For the same compound, in the data set with db/db mice (setting [6]), the “decrease of IL-1β” value is “trending”, the “decrease of IL-6” value is “trending”, the “decrease of TNF-α” value is listed as “trending” and the adiponectin result was “significantly increased”. The insulin result with db/db mice (setting [6]) was “significantly decreased”.

As to `[2H][C@]1(Cc2ccc(OCCc3ccc(CC)cn3)cc2)SC(=O)NC1=O` [d-R-pio, (R)-5-({p-[2-(5-Ethyl-2-pyridyl)ethoxy]phenyl}methyl)-(5-^2H)-1,3-thiazolidine-2,4-dione], in data set [3], the “difference in inhibition efficacy between d-R-pio and d-S-pio” value was “greater than 5 fold”. Further, the “percent body weight difference versus day 1 body weight” value in data set [2] was “did not increase percent body weight difference over vehicle”. In addition, the “tmax (h) d-R” value in data set [4] amounted to 1 h. Also, the non-essential fatty acids result in the data set with db/db mice was “a similar trend was observed”. Also, in the data set on db/db mice (setting [6]), the “decrease of IL-1β” value is “trending”, the “decrease of IL-6” value was “trending” and the “decrease of TNF-α” value is given as “trending”. Further, the “t1/2 (h) d-S” value in data set [5] (15 mg/kg) turned out to be 0.8 h. Further, in data set [5], the “t1/2 (h) h-R” value is reported as 2.5 h and the “t1/2 (h) h-S” value amounted to 2.5 h. In addition, in data set [5] (plasma d-R-pio, 15 mg/kg), the “AUC0-inf (ng · h/mL) d-R” value stood at 18892 ng·h/mL and the “Cmax (ng/mL) d-R” value is given as 6360 ng/mL.

`[2H][C@@]1(Cc2ccc(OCCc3ccc(CC)cn3)cc2)SC(=O)NC1=O` [d-S-pio, (S)-5-({p-[2-(5-Ethyl-2-pyridyl)ethoxy]phenyl}methyl)-(5-^2H)-1,3-thiazolidine-2,4-dione]: in data set [2], the “percent body weight difference versus day 1 body weight” value is reported as “statistically significant increase”. Besides, the non-essential fatty acids result in the data set with db/db mice is listed as “a similar trend was observed”. In addition, in the data set on db/db mice (setting [6]), the adiponectin entry was “significantly increased”. For the same compound, the “t1/2 (h) d-S” value in data set [5] (15 mg/kg) was determined as 2.3 h. Moreover, in data set [5], the “t1/2 (h) h-R” value is on record as 3.2 h and the “t1/2 (h) h-S” value was determined as 3.1 h.

The values above are taken from patent US10188639B2, “Methods of treating neurological, metabolic, and other disorders using enantiopure deuterium-enriched pioglitazone” (DeuteRx, LLC, priority 2014, dated 2019).
